From patent publication US20260265265A1, “NOVEL BENZIMIDAZOLONE DERIVATIVE COMPOUND AS AUTOTAXIN INHIBITOR” (LG CHEM, LTD., priority 2023, published 2026) come the findings set out here.

A value given as a limit tells only on which side of the number the result lay.

This experiment concerns the target T1, Recombinant Human ENPP-2/Autotaxin (Homo sapiens, UniProt Q13822).
T1 construct: purchased R&D systems 5255-EN
In words: LysoPLD activity measurement (autotaxin enzyme inhibition, choline release, TOOS reagent). The class given is biochemical. The conditions noted are these: LysoPLD inhibitory activity; substrate 14:0 LysoPC; absorbance at 555 nm. Put shortly: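 Enzyme and compound were preincubated for 30 min before adding 14:0 LysoPC substrate, diluted to 300 μM, for 90 minutes at 37° C. The choline product was quantified colorimetrically with TOOS reagent. Wells without compound held 1% DMSO.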
On to `O=C(O)c1cccc(C2(n3c(=O)n(-c4ccc(CC(=O)N5CCCC5)cc4)c4cc(Cl)ccc43)CC2)c1` [Example 170, 3-(1-(5-chloro-2-oxo-3-(4-(2-oxo-2-(pyrrolidin-1-yl)ethyl)phenyl)-2,3-dihydro-1H-benzo[d]imidazol-1-yl)cyclopropyl)benzoic acid], for which the IC50 (commonly the concentration that gives 50% inhibition) is less than 10 nM.

For the molecule `O=C(O)c1cccc(C2(n3c(=O)n(-c4ccc(CC(=O)N5CCCCC5)cc4)c4cc(Cl)ccc43)CC2)c1` [Example 171, 3-(1-(5-chloro-2-oxo-3-(4-(2-oxo-2-(piperidin-1-yl)ethyl)phenyl)-2,3-dihydro-1H-benzo[d]imidazol-1-yl)cyclopropyl)benzoic acid], the IC50 was less than 10 nM. Consider `O=C(O)c1cccc(C2(n3c(=O)n(-c4ccc(CC(=O)N5CCOCC5)cc4)c4cc(Cl)ccc43)CC2)c1` [Example 172, 3-(1-(5-chloro-3-(4-(2-morpholino-2-oxoethyl)phenyl)-2-oxo-2,3-dihydro-1H-benzo[d]imidazol-1-yl)cyclopropyl)benzoic acid], for which the IC50 is 10 to 100 nM. In the case of `O=C(O)c1cccc(C2(n3c(=O)n(-c4ccc(CC(=O)N5CCC(F)(F)CC5)cc4)c4cc(Cl)ccc43)CC2)c1` [Example 173, 3-(1-(5-chloro-3-(4-(2-(4,4-difluoropiperidin-1-yl)-2-oxoethyl)phenyl)-2-oxo-2,3-dihydro-1H-benzo[d]imidazol-1-yl)cyclopropyl)benzoic acid] it was 10 to 100 nM; in that of `O=C(O)c1cccc(C2(n3c(=O)n(-c4ccc(CC(=O)N5CC(O)C5)cc4)c4cc(Cl)ccc43)CC2)c1` [Example 174, 3-(1-(5-chloro-3-(4-(2-(3-hydroxyazetidin-1-yl)-2-oxoethyl)phenyl)-2-oxo-2,3-dihydro-1H-benzo[d]imidazol-1-yl)cyclopropyl)benzoic acid], less than 10 nM; in that of `C[C@@H]1CN(C(=O)Cc2ccc(-n3c(=O)n(C4(c5cccc(C(=O)O)c5)CC4)c4ccc(Cl)cc43)cc2)CCO1` [Example 175, (R)-3-(1-(5-chloro-3-(4-(2-(2-methylmorpholino)-2-oxoethyl)phenyl)-2-oxo-2,3-dihydro-1H-benzo[d]imidazol-1-yl)cyclopropyl)benzoic acid], less than 10 nM. On to `C[C@H]1CN(C(=O)Cc2ccc(-n3c(=O)n(C4(c5cccc(C(=O)O)c5)CC4)c4ccc(Cl)cc43)cc2)CCO1` [Example 176, (S)-3-(1-(5-chloro-3-(4-(2-(2-methylmorpholino)-2-oxoethyl)phenyl)-2-oxo-2,3-dihydro-1H-benzo[d]imidazol-1-yl)cyclopropyl)benzoic acid], for which the concentration for half-maximal inhibition (IC50) lay within 10 to 100 nM. In the case of `C[C@H]1COCCN1C(=O)Cc1ccc(-n2c(=O)n(C3(c4cccc(C(=O)O)c4)CC3)c3ccc(Cl)cc32)cc1` [Example 177, (S)-3-(1-(5-chloro-3-(4-(2-(3-methylmorpholino)-2-oxoethyl)phenyl)-2-oxo-2,3-dihydro-1H-benzo[d]imidazol-1-yl)cyclopropyl)benzoic acid] it was 10 to 100 nM. Take `C[C@@H]1COCCN1C(=O)Cc1ccc(-n2c(=O)n(C3(c4cccc(C(=O)O)c4)CC3)c3ccc(Cl)cc32)cc1` [Example 178, (R)-3-(1-(5-chloro-3-(4-(2-(3-methylmorpholino)-2-oxoethyl)phenyl)-2-oxo-2,3-dihydro-1H-benzo[d]imidazol-1-yl)cyclopropyl)benzoic acid]: the concentration for half-maximal inhibition (IC50) was less than 10 nM. Consider `O=C(O)c1cccc(C2(n3c(=O)n(-c4ccc(C56CC7CC(CC(C7)C5)C6)cc4)c4cc(Cl)ccc43)CC2)c1` [Example 179, 3-(1-(3-(4-((3r,5r,7r)-adamantan-1-yl)phenyl)-5-chloro-2-oxo-2,3-dihydro-1H-benzo[d]imidazol-1-yl)cyclopropyl)benzoic acid], for which the IC50 lay within 100 to 1000 nM.

`CS(=O)(=O)c1ccc(-n2c(=O)n(C3(c4cccc(C(=O)O)c4)CC3)c3ccc(Cl)cc32)cc1` [Example 180, 3-(1-(5-chloro-3-(4-(methylsulfonyl)phenyl)-2-oxo-2,3-dihydro-1H-benzo[d]imidazol-1-yl)cyclopropyl)benzoic acid]: the IC50 was less than 10 nM. In the case of `O=C(O)c1cccc(C2(n3c(=O)n(-c4ccc(N5CC6CC5CO6)cc4)c4cc(Cl)ccc43)CC2)c1` (stereo not drawn) [Example 181, 3-(1-(3-(4-(2-oxa-5-azabicyclo[2.2.1]heptan-5-yl)phenyl)-5-chloro-2-oxo-2,3-dihydro-1H-benzo[d]imidazol-1-yl)cyclopropyl)benzoic acid], the IC50 was less than 10 nM. As for `O=C(O)c1cccc(C2(n3c(=O)n(-c4ccc(N5CC6CCC(C5)O6)cc4)c4cc(Cl)ccc43)CC2)c1` [Example 182, 3-(1-(3-(4-(8-oxa-3-azabicyclo[3.2.1]octan-3-yl)phenyl)-5-chloro-2-oxo-2,3-dihydro-1H-benzo[d]imidazol-1-yl)cyclopropyl)benzoic acid], the figure is less than 10 nM; as for `O=C(O)c1cccc(C2(n3c(=O)n(-c4ccc(N5CCCOCC5)cc4)c4cc(Cl)ccc43)CC2)c1` [Example 183, 3-(1-(3-(4-(1,4-oxazepan-4-yl)phenyl)-5-chloro-2-oxo-2,3-dihydro-1H-benzo[d]imidazol-1-yl)cyclopropyl)benzoic acid], less than 10 nM; as for `O=C(O)c1cccc(C2(n3c(=O)n(-c4ccc(N5CC6(CCC6)C5)cc4)c4cc(Cl)ccc43)CC2)c1` [Example 184, 3-(1-(3-(4-(2-azaspiro[3.3]heptan-2-yl)phenyl)-5-chloro-2-oxo-2,3-dihydro-1H-benzo[d]imidazol-1-yl)cyclopropyl)benzoic acid], 10 to 100 nM. As for `O=C(O)c1cccc(C2(n3c(=O)n(-c4ccc(N5CC(F)(F)C5)cc4)c4cc(Cl)ccc43)CC2)c1` [Example 185, 3-(1-(5-chloro-3-(4-(3,3-difluoroazetidin-1-yl)phenyl)-2-oxo-2,3-dihydro-1H-benzo[d]imidazol-1-yl)cyclopropyl)benzoic acid], the figure is less than 10 nM; as for `CC(=O)N1CCC2(CC1)CN(c1ccc(-n3c(=O)n(C4(c5cccc(C(=O)O)c5)CC4)c4ccc(Cl)cc43)cc1)C2` [Example 186, 3-(1-(3-(4-(7-acetyl-2,7-diazaspiro[3.5]nonan-2-yl)phenyl)-5-chloro-2-oxo-2,3-dihydro-1H-benzo[d]imidazol-1-yl)cyclopropyl)benzoic acid], less than 10 nM.

Regarding `O=C(O)c1cc(F)cc(C2(n3c(=O)n(-c4ccc(N5CCOCC5)cc4)c4cc(Cl)ccc43)CC2)c1` [Example 187, 3-(1-(5-chloro-3-(4-morpholinophenyl)-2-oxo-2,3-dihydro-1H-benzo[d]imidazol-1-yl)cyclopropyl)-5-fluorobenzoic acid], the IC50 was less than 10 nM. Consider `CN(C)c1ccc(-n2c(=O)n(C3(c4cc(F)cc(C(=O)O)c4)CC3)c3ccc(Cl)cc32)cc1` [Example 188, 3-(1-(5-chloro-3-(4-(dimethylamino)phenyl)-2-oxo-2,3-dihydro-1H-benzo[d]imidazol-1-yl)cyclopropyl)-5-fluorobenzoic acid], for which the IC50 was less than 10 nM.

On to `CN(C)C(=O)Cc1ccc(-n2c(=O)n(C3(c4cc(F)cc(C(=O)O)c4)CC3)c3ccc(Cl)cc32)cc1` [Example 189, 3-(1-(5-chloro-3-(4-(2-(dimethylamino)-2-oxoethyl)phenyl)-2-oxo-2,3-dihydro-1H-benzo[d]imidazol-1-yl)cyclopropyl)-5-fluorobenzoic acid], for which the IC50 is less than 10 nM.

Consider `O=C(O)c1cc(F)cc(C2(n3c(=O)n(-c4ccc(C5CCOCC5)cc4)c4cc(Cl)ccc43)CC2)c1` [Example 190, 3-(1-(5-chloro-2-oxo-3-(4-(tetrahydro-2H-pyran-4-yl)phenyl)-2,3-dihydro-1H-benzo[d]imidazol-1-yl)cyclopropyl)-5-fluorobenzoic], for which the IC50 was 10 to 100 nM. `O=C(O)c1cc(F)cc(C2(n3c(=O)n(-c4ccc(N5CC6(COC6)C5)cc4)c4cc(Cl)ccc43)CC2)c1` [Example 191, 3-(1-(3-(4-(2-oxa-6-azaspiro[3.3]heptan-6-yl)phenyl)-5-chloro-2-oxo-2,3-dihydro-1H-benzo[d]imidazol-1-yl)cyclopropyl)-5-fluorobenzoic acid]: the concentration for half-maximal inhibition (IC50) was less than 10 nM. As for `O=C(O)c1cc(F)cc(C2(n3c(=O)n(-c4ccc(N5CC6CCC(C5)O6)cc4)c4cc(Cl)ccc43)CC2)c1` [Example 192, 3-(1-(3-(4-(8-oxa-3-azabicyclo[3.2.1]octan-3-yl)phenyl)-5-chloro-2-oxo-2,3-dihydro-1H-benzo[d]imidazol-1-yl)cyclopropyl)-5-fluorobenzoic acid], the figure is less than 10 nM; as for `O=C(O)c1cc(F)cc(C2(n3c(=O)n(-c4ccc(N5CC6(CCOCC6)C5)cc4)c4cc(Cl)ccc43)CC2)c1` [Example 193, 3-(1-(3-(4-(7-oxa-2-azaspiro[3.5]nonan-2-yl)phenyl)-5-chloro-2-oxo-2,3-dihydro-1H-benzo[d]imidazol-1-yl)cyclopropyl)-5-fluorobenzoic acid], less than 10 nM.

For `O=C(O)c1cc(F)cc(C2(n3c(=O)n(-c4ccc(N5CC(F)(F)C5)cc4)c4cc(Cl)ccc43)CC2)c1` [Example 194, 3-(1-(5-chloro-3-(4-(3,3-difluoroazetidin-1-yl)phenyl)-2-oxo-2,3-dihydro-1H-benzo[d]imidazol-1-yl)cyclopropyl)-5-fluorobenzoic acid], the IC50 was less than 10 nM. In the case of `CC(C)(C)OC(=O)N1CCC2(CC1)CN(c1ccc(-n3c(=O)n(C4(c5cc(F)cc(C(=O)O)c5)CC4)c4ccc(Cl)cc43)cc1)C2` [Example 195, 3-(1-(3-(4-(7-(tert-butoxycarbonyl)-2,7-diazaspiro[3.5]nonan-2-yl)phenyl)-5-chloro-2-oxo-2,3-dihydro-1H-benzo[d]imidazol-1-yl)cyclopropyl)-5-fluorobenzoic acid] it was 10 to 100 nM. For the molecule `O=C(O)c1cc(F)cc(C2(n3c(=O)n(-c4ccc(N5CC6(CCC6)C5)cc4)c4cc(Cl)ccc43)CC2)c1` [Example 196, 3-(1-(3-(4-(2-azaspiro[3.3]heptan-2-yl)phenyl)-5-chloro-2-oxo-2,3-dihydro-1H-benzo[d]imidazol-1-yl)cyclopropyl)-5-fluorobenzoic acid], the IC50 lay in the range of 10 to 100 nM.
